From patent US6037354A, “Alpha 1a adrenergic receptor antagonists” (Merck & Co., Inc., priority 1998, dated 2000)
pKi: −log10 of the molar value. Counter-ions that a name gives are not always drawn.

Tests used:
[1] = target: T1, human alpha 1a adrenergic receptor (Homo sapiens, UniProt P35348); test: Alpha 1a Adrenergic Receptor Binding screening assay ([125I]-HEAT competition, membranes of stably transfected human alpha 1a cell line); conditions: human alpha 1a receptor, 100 pM [125I]-HEAT, room temperature, one hour
T1 sequence (P35348 1-466): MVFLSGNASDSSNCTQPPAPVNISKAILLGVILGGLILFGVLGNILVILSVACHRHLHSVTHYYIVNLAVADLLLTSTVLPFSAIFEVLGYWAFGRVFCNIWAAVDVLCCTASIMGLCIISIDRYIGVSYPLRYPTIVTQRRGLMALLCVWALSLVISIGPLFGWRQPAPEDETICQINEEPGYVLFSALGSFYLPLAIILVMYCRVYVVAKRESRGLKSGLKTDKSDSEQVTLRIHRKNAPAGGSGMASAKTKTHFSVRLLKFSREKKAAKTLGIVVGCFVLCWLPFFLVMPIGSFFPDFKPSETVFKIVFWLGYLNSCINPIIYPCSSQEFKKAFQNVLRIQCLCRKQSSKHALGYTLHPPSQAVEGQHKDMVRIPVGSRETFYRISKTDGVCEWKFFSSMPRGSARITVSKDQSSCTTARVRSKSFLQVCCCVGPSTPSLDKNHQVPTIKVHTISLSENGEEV
Protocol: Screening assay: Alpha 1a Adrenergic Receptor Binding
Membranes prepared from the stably transfected human alpha 1a cell line (ATCC CRL 11140) were used to identify compounds that bind to the human alpha 1a adrenergic receptor. These competition binding reactions (total volume=200 μl) contained 50 mM Tris-HCl pH. 7.4, 5 mM EDTA, 150 mM NaCl, 100 pM [^125 I]-HEAT, membranes prepared from the alpha 1a cell line and increasing amounts of unlabeled ligand. Reactions were incubated at room temperature for one hour with shaking. Reactions were filtered onto Whatman GF/C glass fiber filters with a Inotec 96 well cell harvester. Filters were washed three times with ice cold buffer and bound radioactivity was determined (Ki).

[2] = system: human alpha 1b and alpha 1d adrenergic receptors; test: Selective Binding assays ([125I]-HEAT competition, membranes of stably transfected human alpha 1d and alpha 1b cell lines), compared with alpha 1a; conditions: alpha 1a versus alpha 1b and alpha 1d
Protocol: Selective Binding assays Membranes prepared from stably transfected human alpha 1d and alpha 1b cell lines (ATCC CRL 11138 and CRL 11139, respectively) were used to identify compounds that selectively bind to the human alpha 1a adrenergic receptor. These competition binding reactions (total volume=200 μl) contained 50 mM Tris-HCl pH. 7.4, 5 mM EDTA, 150 mM NaCl, 100 pM [^125 I]-HEAT, membranes prepared from cell lines transfected with the respective alpha 1 subtype expression plasmid and increasing amounts of unlabeled ligand. Reactions were incubated at room temperature for one hour with shaking. Reactions were filtered onto Whatman GF/C glass fiber filters with a Inotec 96 well cell harvester. Filters were washed three times with ice cold buffer and bound radioactivity was determined (Ki).

| pKi [1] | alpha 1a Ki [1] | Structure (SMILES) | selectivity in binding to alpha 1a receptors versus binding to the alpha 1b and alpha 1d receptors [2] |
| --- | --- | --- | --- |
| > 6.70 |  | Cl.O=C(N[C@@H]1CCN([C@H]2CC[C@@H](c3ccccn3)CC2)C1)N1C(=O)OC[C@@H]1c1ccc(F)c(F)c1 [Example 12, (4S)-cis-4-(3,4-Difluorophenyl)-2-oxooxazolidine-3-carboxylic acid-[1-(4-pyridin-2-yl-cyclohexyl)-(3R)-pyrrolidin-3-yl]amide hydrochloride] | at least 3 fold |
| ~6.10 |  | COc1ccccc1[C@H]1CC[C@@H](N2CC[C@@H](NC(=O)N3C(=O)OC[C@@H]3c3ccc(F)c(F)c3)C2)CC1 [Example 16, (4S)-cis-4-(3,4-Difluorophenyl)-2-oxooxazolidine-3-carboxylic acid-{1-[4-(2-methoxyphenyl)-cyclohexyl]-(3R)-pyrrolidin-3-yl}amide hydrochloride] |  |
|  | inactive | O=C(N[C@@H]1CCN(C2CCC(O)(c3ccccn3)CC2)C1)N1C(=O)OC[C@@H]1c1ccc(F)c(F)c1 (stereo partly drawn) [Example 20, (4S)-trans-4-(3,4-Difluorophenyl)-2-oxooxazolidine-3-carboxylic acid-[1-(4-hydroxy-4-pyridin-2-yl-cyclohexyl)-(3R)-pyrrolidin-3-yl]amide hydrochloride] |  |
|  |  | NC(=O)[C@@H]1OC(=O)N(C(=O)N[C@@H]2CCN([C@H]3CC[C@H](c4ccccc4F)CC3)C2)[C@H]1c1ccc(F)c(F)c1 [Example 78, (4S,5R)-trans-4-(3,4-Difluorophenyl)-3-{1-[4-(2-fluorophenyl)cyclohexyl]-(3R)-pyrrolidin-3-ylcarbamoyl}-2-oxo-oxazolidine-5-carboxamide] | about 37 fold |
